Measured values: patent US10385019B2, “Inhibitors of EGFR and methods of use thereof” (Dana-Farber Cancer Institute, Inc., priority 2015, dated 2019)

The molecules below were run against EGFR T790M/L858R Ba/F3 cell line (Homo sapiens, UniProt P00533, T790M/L858R, cells depend on it) (assay: Ba/F3 cell proliferation model). Conditions: combined with cetuximab (% cetuximab, 1.0 μM drug concentration with 1.0 μg/mL cetuximab).
Type: cell-based, murine
Excerpt: The selectivity between wild-type EGFR and EGFR containing one or more mutations as described herein can also be measured using cellular proliferation assays where cell proliferation is dependent on kinase activity. For example, murine Ba/F3 cells transfected with a suitable version of wild-type EGFR (such as VIII; containing a WT EGFR kinase domain), or Ba/F3 cells transfected with L858R/T790M, Del/T790M/L718Q, L858R/T790M/L718Q, L858R/T790M/C797S, Del/T790M/C797S, L858R/T790M/I941R, or Exon 19 deletion/T790M can be used.
Cell lines are plated in media. The compounds of the present disclosure are then serially diluted and transferred to the cells. Cell viability is measured via a luminescent readout. Data is analyzed by non-linear regression curve-fitting. […]
The EGFR mutant L858R, Del E746_A750, L858R/T790M, DelE746_A750/T790M, L858R/T790M/C797S and Del/T790M/C797S Ba/F3 cells have been previously described (Zhou, W., Ercan, D., Chen, L., Yun, C. H., Li, D., Capelletti, M., Cortot, A. B., Chirieac, L., Iacob, R. E., Padera, R., et al. “Novel mutant-selective EGFR kinase inhibitors against EGFR T790M,” Nature 462, (2009), 1070-1074). All cell lines were maintained in RPMI 1640 (Cellgro; Mediatech Inc., Herndon, Calif.) supplemented with 10% FBS 100 units/mL penicillin, 100 units/mL streptomycin, and 2 mM glutamine. L858R cells were maintained in ACL-4 media (Invitrogen, Carlsbad, Calif.) supplemented with 5% FBS, 100 units/mL penicillin, 100 units/mL streptomycin, and 2 mM glutamine. The EGFR I941R mutation was introduced via site directed mutagenesis using the Quick Change Site-Directed Mutagenesis kit (Stratagene; La Jolla, Calif.) according to the manufacturer's instructions. All constructs were confirmed by DNA sequencing. The constructs were shuttled into the retroviral vector JP 1540 using the BD Creator™ System (BD Biosciences). Ba/F3 cells were infected with retrovirus and according to standard protocols, as described previously (Zhou et al, Nature 2009). Stable clones were obtained by selection in puromycin (2 μg/ml).
Growth and inhibition of growth was assessed by MTS assay and was performed according to previously established methods (Zhou et al., Nature 2009). The MTS assay is a colorimetric method for determining the number of viable cells that is based on the bioreduction of MTS by cells to a formazan product that is soluble in cell culture medium and can be detected spectrophotometrically. Ba/F3 cells of different EGFR genotypes were exposed to treatment for 72 hours and the number of cells used per experiment determined empirically and has been previously established (Zhou et al., Nature 2009). All experimental points were set up in six wells and all experiments were repeated at least three times. […] The curves were fitted using a non-linear regression model with a sigmoidal dose response.
Inhibition data of an EGFR T790M/L858R Ba/F3 cell line.

Sequence of EGFR T790M/L858R Ba/F3 cell line (P00533 whole entry T790M/L858R): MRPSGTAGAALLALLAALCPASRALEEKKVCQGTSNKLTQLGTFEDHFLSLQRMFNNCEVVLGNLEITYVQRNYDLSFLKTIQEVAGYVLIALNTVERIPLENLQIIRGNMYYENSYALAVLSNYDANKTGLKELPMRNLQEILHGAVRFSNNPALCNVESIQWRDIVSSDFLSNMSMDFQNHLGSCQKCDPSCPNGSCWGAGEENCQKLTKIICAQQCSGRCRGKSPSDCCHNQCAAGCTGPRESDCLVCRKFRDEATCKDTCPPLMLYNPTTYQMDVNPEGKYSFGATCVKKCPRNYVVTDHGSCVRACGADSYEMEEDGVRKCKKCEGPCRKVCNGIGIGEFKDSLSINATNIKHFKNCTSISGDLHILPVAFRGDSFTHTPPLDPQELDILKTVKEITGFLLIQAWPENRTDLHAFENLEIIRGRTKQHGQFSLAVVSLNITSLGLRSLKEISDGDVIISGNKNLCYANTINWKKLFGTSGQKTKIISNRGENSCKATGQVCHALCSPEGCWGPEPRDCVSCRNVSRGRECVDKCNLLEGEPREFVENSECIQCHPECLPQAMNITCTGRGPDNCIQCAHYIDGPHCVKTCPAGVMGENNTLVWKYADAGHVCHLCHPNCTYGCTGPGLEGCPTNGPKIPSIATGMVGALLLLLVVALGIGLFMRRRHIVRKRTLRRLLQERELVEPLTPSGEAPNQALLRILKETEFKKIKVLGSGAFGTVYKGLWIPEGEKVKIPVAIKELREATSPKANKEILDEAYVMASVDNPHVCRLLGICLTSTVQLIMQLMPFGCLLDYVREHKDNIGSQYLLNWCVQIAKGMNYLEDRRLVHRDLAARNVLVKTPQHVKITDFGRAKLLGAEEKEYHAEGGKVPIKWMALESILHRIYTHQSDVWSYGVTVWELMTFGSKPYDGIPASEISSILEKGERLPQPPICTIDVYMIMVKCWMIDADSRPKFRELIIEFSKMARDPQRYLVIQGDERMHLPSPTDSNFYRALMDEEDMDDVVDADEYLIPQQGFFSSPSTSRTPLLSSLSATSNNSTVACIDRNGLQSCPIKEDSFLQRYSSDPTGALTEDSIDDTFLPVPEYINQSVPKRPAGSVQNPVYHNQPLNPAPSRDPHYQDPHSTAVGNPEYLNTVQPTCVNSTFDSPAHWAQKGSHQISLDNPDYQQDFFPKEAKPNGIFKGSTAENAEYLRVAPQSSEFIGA

| Activity (% inhibition) | Compound |
| --- | --- |
| A (a % inhibition of about 75%) | O=C(Nc1nccs1)[C@@H](c1ccccc1)N1Cc2cc(Nc3ccc(OCc4ccccc4)cc3)ccc2C1=O [Compound I-96, (R)-2-(5-((4-(benzyloxy)phenyl)amino)-1-oxoisoindolin-2-yl)-2-phenyl-N-(thiazol-2-yl)acetamide] |
| A (a % inhibition of about 75%) | O=C(Nc1nncs1)[C@@H](c1ccccc1)N1Cc2ccccc2C1=O [Compound I-41, (R)-2-(1-oxoisoindolin-2-yl)-2-phenyl-N-(1,3,4-thiadiazol-2-yl)acetamide] |
| A (a % inhibition of about 75%) | NC(=O)c1csc(NC(=O)[C@@H](c2ccccc2)N2Cc3ccccc3C2=O)n1 [Compound I-17, (R)-2-(2-(1-oxoisoindolin-2-yl)-2-phenylacetamido)thiazole-4-carboxamide] |
| A (a % inhibition of about 75%) | Nc1cccc([C@@H](C(=O)Nc2nccs2)N2Cc3ccccc3C2=O)c1 [Compound I-13, (S)-2-(3-aminophenyl)-2-(1-oxoisoindolin-2-yl)-N-(thiazol-2-yl)acetamide] |
| A (a % inhibition of about 75%) | O=C(NCc1ccccc1)[C@@H](c1ccccc1)N1Cc2ccccc2C1=O [Compound I-87, (R)-N-benzyl-2-(1-oxoisoindolin-2-yl)-2-phenylacetamide] |
| A (a % inhibition of about 75%) | CNC(=O)c1csc(NC(=O)[C@@H](c2ccccc2)N2Cc3ccccc3C2=O)n1 [Compound I-9, (R)-N-methyl-2-(2-(1-oxoisoindolin-2-yl)-2-phenylacetamido) thiazole-4-carboxamide] |
| A (a % inhibition of about 75%) | O=C(Nc1nc(-c2ccncc2)cs1)[C@@H](c1ccccc1)N1Cc2ccccc2C1=O [Compound I-37, (R)-2-(1-oxoisoindolin-2-yl)-2-phenyl-N-(4-(pyridin-4-yl)thiazol-2-yl)acetamide] |
| A (a % inhibition of about 75%) | O=C(Nc1cnsc1)[C@@H](c1ccccc1)N1Cc2ccc(-c3ccc4[nH]ccc4c3)cc2C1=O [Compound I-128, (R)-2-(6-(1H-indol-5-yl)-1-oxoisoindolin-2-yl)-N-(isothiazol-4-yl)-2-phenylacetamide] |
| A (a % inhibition of about 75%) | O=C(Nc1nccs1)[C@@H](Cc1ccccc1)N1Cc2ccccc2C1=O [Compound I-39, (R)-2-(1-oxoisoindolin-2-yl)-3-phenyl-N-(thiazol-2-yl)propanamide] |
| A (a % inhibition of about 75%) | O=C(Nc1cncnc1)[C@@H](c1ccccc1)N1Cc2ccc(-c3ccc4[nH]ccc4c3)cc2C1=O [Compound I-134, (R)-2-(6-(1H-indol-5-yl)-1-oxoisoindolin-2-yl)-2-phenyl-N-(pyrimidin-5-yl)acetamide] |
| A (a % inhibition of about 75%) | O=C(Nc1ccccc1Cl)[C@@H](c1ccccc1)N1Cc2ccccc2C1=O [Compound I-52, (R)-N-(2-chlorophenyl)-2-(1-oxoisoindolin-2-yl)-2-phenylacetamide] |
| A (a % inhibition of about 75%) | CCOC(=O)c1csc(NC(=O)[C@@H](c2ccccc2)N2Cc3ccccc3C2=O)n1 [Compound I-4, ethyl (R)-2-(2-(1-oxoisoindolin-2-yl)-2-phenylacetamido) thiazole-4-carboxylate] |
| A (a % inhibition of about 75%) | O=C(Nc1nc(Br)cs1)[C@@H](Cc1ccccc1)N1Cc2ccccc2C1=O [Compound I-50, (R)-N-(4-bromothiazol-2-yl)-2-(1-oxoisoindolin-2-yl)-3-phenylpropanamide] |
| A (a % inhibition of about 75%) | O=C(Nc1cccnc1)[C@@H](c1ccccc1)N1Cc2ccccc2C1=O [Compound I-7, (R)-2-(1-oxoisoindolin-2-yl)-2-phenyl-N-(pyridin-3-yl) acetamide] |
| A (a % inhibition of about 75%) | C[C@@H](NC(=O)[C@H](c1ccccc1)N1Cc2ccccc2C1=O)c1ccccc1 [Compound I-1, (S)-2-(1-oxoisoindolin-2-yl)-2-phenyl-N-((R)-1-phenylethyl)acetamide] |

Second part, the molecule before the results:

| Compound | Activity (% inhibition) |
| --- | --- |
| O=C(Nc1nccs1)[C@@H](c1cccc([N+](=O)[O-])c1)N1Cc2ccc(-c3ccc4[nH]ccc4c3)cc2C1=O [Compound I-109, (R)-2-(6-(1H-indol-5-yl)-1-oxoisoindolin-2-yl)-2-(3-nitrophenyl)-N-(thiazol-2-yl)acetamide] | B (a % inhibition of between about 50% to about 75%) |
| O=C(Nc1nccs1)[C@@H](c1ccccc1)N1Cc2cc(Nc3cccc(CN4CCCC4)c3)ccc2C1=O [Compound I-95, (R)-2-(1-oxo-5-((3-(pyrrolidin-1-ylmethyl)phenyl)amino)isoindolin-2-yl)-2-phenyl-N-(thiazol-2-yl)acetamide] | B (a % inhibition of between about 50% to about 75%) |
| CN(C)CCNC(=O)c1csc(NC(=O)[C@@H](c2ccccc2)N2Cc3ccccc3C2=O)n1 [Compound I-16, (R)-N-(2-(dimethylamino)ethyl)-2-(2-(1-oxoisoindolin-2-yl)-2-phenylacetamido)thiazole-4-carboxamide] | A (a % inhibition of about 75%) |
| O=C(Nc1nccs1)[C@@H](c1ccccc1)N1Cc2ccc(-c3cccc(F)c3)cc2C1=O [Compound I-76, (R)-2-(6-(3-fluorophenyl)-1-oxoisoindolin-2-yl)-2-phenyl-N-(thiazol-2-yl)acetamide] | B (a % inhibition of between about 50% to about 75%) |
| O=C(Nc1ncc(CCCN2CCOCC2)s1)[C@@H](c1ccccc1)N1Cc2ccccc2C1=O [Compound I-44, (R)-N-(5-(3-morpholinopropyl)thiazol-2-yl)-2-(1-oxoisoindolin-2-yl)-2-phenylacetamide] | A (a % inhibition of about 75%) |
| O=C(NCCN1CCOCC1)c1csc(NC(=O)[C@@H](c2ccccc2)N2Cc3ccccc3C2=O)n1 [Compound I-10, (R)-N-(2-morpholinoethyl)-2-(2-(1-oxoisoindolin-2-yl)-2-phenylacetamido)thiazole-4-carboxamide] | A (a % inhibition of about 75%) |
| O=C(Nc1nccs1)[C@@H](c1ccccc1)N1Cc2ccc(Nc3cccc(CN4CCCC4)c3)cc2C1=O [Compound I-100, (R)-2-(1-oxo-6-((3-(pyrrolidin-1-ylmethyl)phenyl)amino)isoindolin-2-yl)-2-phenyl-N-(thiazol-2-yl)acetamide] | D (a % inhibition of between about 0% to about 25%) |
| O=C(Nc1nc(C(=O)N2CCC(N3CCOCC3)CC2)cs1)[C@@H](c1ccccc1)N1Cc2ccccc2C1=O [Compound I-24, (R)-N-(4-(4-morpholinopiperidine-1-carbonyl)thiazol-2-yl)-2-(1-oxoisoindolin-2-yl)-2-phenylacetamide] | A (a % inhibition of about 75%) |
| O=C(Nc1nccs1)[C@@H](c1ccccc1)N1Cc2ccc(-c3ccncc3)cc2C1=O [Compound I-61, (R)-2-(1-oxo-6-(pyridin-4-yl)isoindolin-2-yl)-2-phenyl-N-(thiazol-2-yl)acetamide] | C (a % inhibition of between about 25% to about 50%) |
| COC(=O)c1cc(Br)ccc1N[C@@H](C(=O)Nc1nccs1)c1ccccc1 [Compound I-106, methyl (R)-5-bromo-2-((2-oxo-1-phenyl-2-(thiazol-2-ylamino)ethyl)amino)benzoate] | B (a % inhibition of between about 50% to about 75%) |
| O=C(NCCCN1CCOCC1)c1cccc(-c2ccc3c(c2)C(=O)N([C@@H](C(=O)Nc2nccs2)c2ccccc2)C3)c1 [Compound I-91, (R)-N-(3-morpholinopropyl)-3-(3-oxo-2-(2-oxo-1-phenyl-2-(thiazol-2-ylamino)ethyl)isoindolin-5-yl)benzamide] | D (a % inhibition of between about 0% to about 25%) |
| O=C(Nc1nccs1)[C@@H](c1ccccc1)N1Cc2ccc(-c3cccs3)cc2C1=O [Compound I-46, (R)-2-(1-oxo-6-(thiophen-2-yl)isoindolin-2-yl)-2-phenyl-N-(thiazol-2-yl)acetamide] | B (a % inhibition of between about 50% to about 75%) |
